Laboratory results reported in patent US20160257927A1, “THREE-DIMENSIONAL CELL CULTURE USING NANOFIBER SLURRIES AND NANO-STRUCTURED SUBSTRATES” (UCL BUSINESS PLC, priority 2015, published 2016).

Test system: Lung cancer A549 cells
Assay: Chemosensitivity to anticancer drugs in 2D TCP and 3D scaffold (MTS CellTiter 96 cell viability)
Assay type: cell-based, human
Conditions: 48 hrs treatment; 2D TCP vs 3D CA/Rayon, 1:9 scaffold; 25000 cells seeded
Method: FIG. 18. Chemosensitivity of cancer cell lines in response to 48 hrs treatment with anticancer drugs when cultured in 2D Tissue Culture Plates (TCP) and 3D CA/Rayon, 1:9 scaffold.
25000 cells of tested cell lines were seeded in 2D TCP and 3D scaffold. Cells were treated with anticancer drugs for 48 hrs and then cell viability was measured using MTS CellTiter 96® Aqueous One Solution assay (Promega).

Row | SMILES | chemosensitivity (cell viability) of A549 cells
1 | O=c1[nH]cc(F)c(=O)[nH]1 [5-fluorouracil] | more sensitive to 5-fluorouracil and doxorubicin in 2D TCP than in 3D scaffolds
2 | COc1cccc2c1C(=O)c1c(O)c3c(c(O)c1C2=O)C[C@@](O)(C(=O)CO)C[C@@H]3O[C@H]1C[C@H](N)[C@H](O)[C@H](C)O1 [doxorubicin] | more sensitive to 5-fluorouracil and doxorubicin in 2D TCP than in 3D scaffolds
